Source: EP0144845A1, “Indolylacetic acid derivatives and preparations containing same for medical treatments” (GREEN CROSS CORPORATION, priority 1983, dated 1985)

Tests used:
[1] = tested on: carrageenan- induced edema in rats; assay: Anti-inflammatory action: carrageenan-induced leg edema in rats; type: in vivo, Wister male rats; conditions: 0.3 mg/kg by the tail venous route 1 hour after carrageenan, fat emulsions, leg volume vs physiological saline groups 3 hours after carrageenan
Method: Wister male rats were divided into groups of 6 rats each. 0.1 mℓ of a 1% solution of carrageenan in physiological saline was injected subcutaneously in the heel of a right hind leg for each rat to develop a leg edema. One hour after the injection of carrageenan, a drug to be tested was injected in a dosage of 0.3 mg/kg by the tail venous route. Thereafter the leg volume was measured with suitable time intervals.
The fat emulsions prepared in Preparation Examples 1 to 4 were tested. As a control drug, physiological saline was used.
The degree of the anti-inflammatory action was indicated as an inhibitory ratio in connection with the leg volume of physiological saline-administered groups 3 hours after the injection of carrageenan.

[2] = Solubility in soybean oil (crystal precipitation on standing); type: physicochemical; conditions: 200 mg dissolved in 1 mL soybean oil at 70°C, then standing at 25°C for 2 days and nights
Method: In order to examine the solubility of the above-obtained substance in soybean oil, 200 mg of the substance was dissolved in 1 m£ of soybean oil while heating at 70°C and, thereafter, the resulting solution was allowed to stand at 25°C for 2 days and nights.

CCCCOC(=O)COC(=O)Cc1c(C)n(C(=O)c2ccc(Cl)cc2)c2ccc(OC)cc12 [Example 1, butoxycarbonylmethyl indomethacin ester]
Anti-inflammatory Action Edema Inhibition Ratio (%) [1]: 60%

CCCCCCOC(=O)COC(=O)Cc1c(C)n(C(=O)c2ccc(Cl)cc2)c2ccc(OC)cc12 [Example 2, Hexyloxycarbonylmethyl indomethacin ester]
Anti-inflammatory Action Edema Inhibition Ratio (%) [1]: 62%

COc1ccc2c(c1)c(CC(=O)OCOC(=O)C(C)(C)C)c(C)n2C(=O)c1ccc(Cl)cc1 [Example 3, Pivaloyloxymethyl indomethacin ester]
Anti-inflammatory Action Edema Inhibition Ratio (%) [1]: 58%

CCCCOC(=O)COC(=O)Cc1c(C)n(C(=O)c2ccc(F)cc2)c2ccc(OC)cc12 [Example 4, butoxycarbonylmethyl 1-(p-fluorobenzoyl)-5-methoxy-2-methylindole-3-acetate]
solubility in soybean oil: precipitation of crystals [2]: Precipitation of crystals was not observed at all
Anti-inflammatory Action Edema Inhibition Ratio (%) [1]: 68%
